Data from ChEMBL document CHEMBL1201861, “Genomics of Drug Sensitity in Cancer screening data, Wellcome Trust Sanger Institute”.

Experiments:
CPC-N = assay: cells; type: functional, cell-based, Homo sapiens; details: Homo sapiens, CPC-N;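 further: growth inhibition of CPC-N cells, with a cell viability assay as the readout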
Description: SANGER: Inhibition of human CPC-N cell growth in a cell viability assay.

Ca9-22 = assay: cells; type: functional, cell-based; details: Homo sapiens;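 further: growth inhibition of Ca9-22 cells, read out with a cell viability assay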
Description: SANGER: Inhibition of human Ca9-22 cell growth in a cell viability assay.

CaR-1 = assay: cells; type: functional, cell-based; details: Homo sapiens;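 further: growth inhibition of human CaR-1 cancer cells, read out with a cell viability assay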
Description: SANGER: Inhibition of human CaR-1 cell growth in a cell viability assay.

Capan-2 = assay: cells; type: functional, cell-based; details: Homo sapiens;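 further: Capan-2 cell growth inhibition, read out with a viability assay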
Description: SANGER: Inhibition of human Capan-2 cell growth in a cell viability assay.

Daoy = assay: cells; type: functional, cell-based; details: Homo sapiens;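 further: daoy cell growth inhibition, read out as cell viability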
Description: SANGER: Inhibition of human Daoy cell growth in a cell viability assay.

EB-3 = assay: cells; type: functional, cell-based, Homo sapiens; details: Homo sapiens, EB-3;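 further: human EB-3 cells, growth inhibition read out via a cell viability assay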
Description: SANGER: Inhibition of human EB-3 cell growth in a cell viability assay.

H4 = assay: cells; type: functional, cell-based; details: Homo sapiens
Description: SANGER: Inhibition of human H4 cell growth in a cell viability assay.

HCC1806 = assay: cells; type: functional, cell-based; details: Homo sapiens;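 further: growth inhibition of the cancer cell line, determined with a cell viability assay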
Description: SANGER: Inhibition of human HCC1806 cell growth in a cell viability assay.

HCC38 = assay: cells; type: functional, cell-based; details: Homo sapiens;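 further: cell viability assay on the human HCC38 cell line, with IC50 marking the concentration that inhibits cell growth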
Description: SANGER: Inhibition of human HCC38 cell growth in a cell viability assay.

HCC70 = assay: cells; type: functional, cell-based; details: Homo sapiens;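 further: cell viability assay measuring how strongly the compound suppresses proliferation of HCC70 cells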
Description: SANGER: Inhibition of human HCC70 cell growth in a cell viability assay.

HEC-1 = assay: cells; type: functional, cell-based; details: Homo sapiens;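 further: growth inhibition of the cell line, read out with a cell viability assay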
Description: SANGER: Inhibition of human HEC-1 cell growth in a cell viability assay.

HOP-92 = assay: cells; type: functional, cell-based; details: Homo sapiens;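 further: cell viability readout, with IC50 reflecting inhibition of HOP-92 cell growth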
Description: SANGER: Inhibition of human HOP-92 cell growth in a cell viability assay.

HOS = assay: cells; type: functional, cell-based; details: Homo sapiens;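 further: growth inhibition of human HOS cells, read out with a cell viability assay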
Description: SANGER: Inhibition of human HOS cell growth in a cell viability assay.

HT-1376 = assay: cells; type: functional, cell-based; details: Homo sapiens
Description: SANGER: Inhibition of human HT-1376 cell growth in a cell viability assay.

HT-3 = assay: cells; type: functional, cell-based; details: Homo sapiens;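 further: growth inhibition measured with a cell viability readout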
Description: SANGER: Inhibition of human HT-3 cell growth in a cell viability assay.

HuO-3N1 = assay: cells; type: functional, cell-based; details: Homo sapiens;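 further: cell viability readout used to measure how strongly compounds suppress proliferation of human HuO-3N1 cells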
Description: SANGER: Inhibition of human HuO-3N1 cell growth in a cell viability assay.

IMR-5 = assay: cells; type: functional, cell-based, Homo sapiens; details: Homo sapiens, IMR-5; read-out: IC50;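 further: growth inhibition of human IMR-5 cells, read out with a cell viability assay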
Description: SANGER: Inhibition of human IMR-5 cell growth in a cell viability assay.

JIYOYE = assay: cells; type: functional, cell-based, Homo sapiens; details: Homo sapiens, JIYOYE
Description: SANGER: Inhibition of human JiyoyeP-2003 cell growth in a cell viability assay.

KARPAS-422 = assay: cells; type: functional, cell-based, Homo sapiens; details: Homo sapiens, KARPAS-422
Description: SANGER: Inhibition of human KARPAS-422 cell growth in a cell viability assay.

Kasumi 1 = assay: cells; type: functional, cell-based, Homo sapiens; details: Homo sapiens, Kasumi 1;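 further: growth inhibition of human Kasumi-1 cells, read out by a cell viability assay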
Description: SANGER: Inhibition of human KASUMI-1 cell growth in a cell viability assay.

KU-19-19 = assay: cells; type: functional, cell-based; details: Homo sapiens
Description: SANGER: Inhibition of human KU-19-19 cell growth in a cell viability assay.

KYSE-70 cell line = assay: cells; type: functional, cell-based; details: Homo sapiens;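 further: cell viability assay read-out, with IC50 expressing suppression of KYSE-70 cell growth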
Description: SANGER: Inhibition of human KYSE-70 cell growth in a cell viability assay.

LB647-SCLC = assay: cells; type: functional, cell-based, Homo sapiens; details: Homo sapiens, LB647-SCLC;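 further: cell growth inhibition, read out by a viability assay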
Description: SANGER: Inhibition of human LB647-SCLC cell growth in a cell viability assay.

LC4-1 = assay: cells; type: functional, cell-based, Homo sapiens; details: Homo sapiens, LC4-1;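 further: growth inhibition of LC4-1 cells, read out with a cell viability assay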
Description: SANGER: Inhibition of human LC4-1 cell growth in a cell viability assay.

LK-2 = assay: cells; type: functional, cell-based; details: Homo sapiens;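 further: growth inhibition of LK-2 cells, read out with a viability assay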
Description: SANGER: Inhibition of human LK-2 cell growth in a cell viability assay.

M059J = assay: cells; type: functional, cell-based; details: Homo sapiens;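 further: growth inhibition of M059J cells, read out with a cell viability assay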
Description: SANGER: Inhibition of human M059J cell growth in a cell viability assay.

MDA-MB-453 = assay: cells; type: functional, cell-based; details: Homo sapiens
Description: SANGER: Inhibition of human MDA-MB-453 cell growth in a cell viability assay.

NB1 = assay: cells; type: functional, cell-based, Homo sapiens; details: Homo sapiens, NB1;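 further: reduction of NB1 cell proliferation, read out with a viability assay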
Description: SANGER: Inhibition of human NB1 cell growth in a cell viability assay.

NCI-H1436 = assay: cells; type: functional, cell-based, Homo sapiens; details: Homo sapiens, NCI-H1436;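 further: growth suppression of human NCI-H1436 cells, determined with a cell viability readout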
Description: SANGER: Inhibition of human NCI-H1436 cell growth in a cell viability assay.

NCI-H1694 = assay: cells; type: functional, cell-based, Homo sapiens; details: Homo sapiens, NCI-H1694;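 further: cell viability assay measuring inhibition of growth in human NCI-H1694 cells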
Description: SANGER: Inhibition of human NCI-H1694 cell growth in a cell viability assay.

NCI-H2052 = assay: cells; type: functional, cell-based; details: Homo sapiens;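 further: growth inhibition of NCI-H2052 cells, read out with a cell viability assay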
Description: SANGER: Inhibition of human NCI-H2052 cell growth in a cell viability assay.

NCI-H2170 = assay: cells; type: functional, cell-based; details: Homo sapiens;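 further: cell viability assay measuring growth inhibition of human NCI-H2170 cancer cells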
Description: SANGER: Inhibition of human NCI-H2170 cell growth in a cell viability assay.

NCI-H2228 = assay: cells; type: functional, cell-based; details: Homo sapiens;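 further: growth inhibition of human NCI-H2228 cells, read out by a cell viability assay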
Description: SANGER: Inhibition of human NCI-H2228 cell growth in a cell viability assay.

NCI-H716 = assay: cells; type: functional, cell-based, Homo sapiens; details: Homo sapiens, NCI-H716;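 further: growth inhibition of human NCI-H716 cells, measured by a cell viability assay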
Description: SANGER: Inhibition of human NCI-H716 cell growth in a cell viability assay.

NCI-H748 = assay: cells; type: functional, cell-based, Homo sapiens; details: Homo sapiens, NCI-H748;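 further: growth inhibition of NCI-H748 cells, measured by a cell viability assay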
Description: SANGER: Inhibition of human NCI-H748 cell growth in a cell viability assay.

PC-3 = assay: cells; type: functional, cell-based; details: Homo sapiens;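 further: cell viability assay measuring growth inhibition of PC-3 cells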
Description: SANGER: Inhibition of human PC-3 cell growth in a cell viability assay.

PFSK-1 = assay: cells; type: functional, cell-based; details: Homo sapiens;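 further: cell viability assay measuring how strongly compounds suppress growth of human PFSK-1 cells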
Description: SANGER: Inhibition of human PFSK-1 cell growth in a cell viability assay.

REH = assay: cells; type: functional, cell-based, Homo sapiens; details: Homo sapiens, REH;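 further: growth inhibition of REH cells determined with a cell viability read-out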
Description: SANGER: Inhibition of human REH cell growth in a cell viability assay.

RPMI-6666 = assay: cells; type: functional, cell-based, Homo sapiens; details: Homo sapiens, RPMI-6666
Description: SANGER: Inhibition of human RPMI-6666 cell growth in a cell viability assay.

RT-112 = assay: cells; type: functional, cell-based; details: Homo sapiens
Description: SANGER: Inhibition of human RT-112 cell growth in a cell viability assay.

SCC-4 = assay: cells; type: functional, cell-based; details: Homo sapiens;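 further: growth inhibition of human SCC-4 cells, read out as cell viability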
Description: SANGER: Inhibition of human SCC-4 cell growth in a cell viability assay.

SK-MES-1 = assay: cells; type: functional, cell-based; details: Homo sapiens;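 further: growth inhibition of human SK-MES-1 cells, read out with a cell viability assay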
Description: SANGER: Inhibition of human SK-MES-1 cell growth in a cell viability assay.

SU-DHL-1 = assay: SANGER: Inhibition of human SU-DHL-1 cell growth in a cell viability assay.; type: functional, cell-based; details: Homo sapiens, SU-DHL-1
SW1417 = assay: cells; type: functional, cell-based; details: Homo sapiens;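 further: growth inhibition of human SW1417 cells, read out with a cell viability assay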
Description: SANGER: Inhibition of human SW1417 cell growth in a cell viability assay.

T84 = assay: cells; type: functional, cell-based; details: Homo sapiens;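 further: growth inhibition measured with a cell viability readout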
Description: SANGER: Inhibition of human T84 cell growth in a cell viability assay.

T98G = assay: cells; type: functional, cell-based; details: Homo sapiens;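 further: growth inhibition of T98G cells, read out by a cell viability assay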
Description: SANGER: Inhibition of human T98G cell growth in a cell viability assay.

A2058 = assay: cells; type: functional, cell-based; details: Homo sapiens;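 further: reduction of A2058 cell growth, read out with a viability assay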
Description: SANGER: Inhibition of human A2058 cell growth in a cell viability assay.

ACHN = assay: cells; type: functional, cell-based; details: Homo sapiens;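 further: cell viability read-out used to gauge how strongly growth of human ACHN cells is suppressed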
Description: SANGER: Inhibition of human ACHN cell growth in a cell viability assay.

BC1 cell line = assay: SANGER: Inhibition of human BC-1 cell growth in a cell viability assay.; type: functional, cell-based; details: Homo sapiens, BC1
BC-3 = assay: cells; type: functional, cell-based, Homo sapiens; details: Homo sapiens, BC-3;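 further: cell viability assay measuring growth inhibition of human BC-3 cells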
Description: SANGER: Inhibition of human BC-3 cell growth in a cell viability assay.

BFTC-909 = assay: cells; type: functional, cell-based; details: Homo sapiens
Description: SANGER: Inhibition of human BFTC-909 cell growth in a cell viability assay.

BHY = assay: cells; type: functional, cell-based; details: Homo sapiens;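 further: cell growth inhibition read out by a viability assay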
Description: SANGER: Inhibition of human BHY cell growth in a cell viability assay.

CAKI-1 = assay: cells; type: functional, cell-based; details: Homo sapiens;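 further: growth inhibition of CAKI-1 cells, measured by a cell viability assay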
Description: SANGER: Inhibition of human CAKI-1 cell growth in a cell viability assay.

TYK-nu = assay: cells; type: functional, cell-based; details: Homo sapiens;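 further: growth inhibition of human TYK-nu cells, read out by a cell viability assay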
Description: SANGER: Inhibition of human TYK-nu cell growth in a cell viability assay.

CESS = assay: SANGER: Inhibition of human CESS cell growth in a cell viability assay.; type: functional, cell-based; details: Homo sapiens, CESS

Measured: IC50

COC(=O)[C@H](CCSC)NC(=O)c1ccc(NC[C@@H](N)CS)cc1-c1ccccc1
> 1020 nM: all assays above
